Data published in patent US20170266182A1, “Treatment of IgG-Immune Complex-Mediated Organ Damage” (The Brigham and Women's Hospital, Inc., priority 2014, published 2017).
pIC50: −log10 of the molar value.

Assays:
FcγRIIA [1] = assay: Immobilized immune complex (IC)-induced ROS generation in FcγRIIA+/γ-/- mouse bone marrow neutrophils (high-throughput screen); assay type: cell-based; details: for ROS RLU ratio: compound at 1.1 μM, mouse BMN ROS induced by immobilized IC
Protocol: Screen of 8,483 compounds was done in collaboration with the Institute of Chemistry and Cell Biology Screening facility at Harvard Medical School (ICCB/Longwood). Each compound was dissolved in DMSO at a concentration of […]. For the primary screen, wells were coated with immune complexes as follows: 0.1 mg/mL poly-L-lysine (Sigma) followed by 2.5% glutaraldehyde were dispensed onto 384-well format black plate (Corning), and the plate was washed once with DDW and twice with PBS, incubated with 100 μL 1 mg/ml bovine serum albumin (BSA) followed by 100 μL 40 μg/mL rabbit anti-BSA antibody to generate in situ immune complexes (IC). Mature murine neutrophils isolated from the bone marrow of FcγRIIA+/γ^-/- mice as previously described, were suspended in 100 uM homovanillic acid/5 U/ml peroxidase IV (Sigma)/1 mM EDTA/HBSS (Thermo) assay solution (pH 7.5) and 3×10^4 cells in 30 μL were loaded per well into a 384-well format plate using a Wellmate automated dispenser (Thermo Scientific). Immediately after dispensing cells, ICCB library compounds dissolved in 33 nL DMSO were dispensed into wells using a Compound Transfer Robot (Epson). The plates were placed in a humidified incubator at 37 C for 60 mins and then fluorescence levels were read out at Ex/Em 321/421 nm with Envision2 (PerkinElmer). PP2 (Sigma), a Src inhibitor known to down-regulate FcγRIIA signal, and DMSO were used as positive and negative control, respectively. All the experiments were performed in duplicate.
An automated high-throughput drug screen in primary neutrophils from mice expressing FcγRIIA on neutrophils and lacking all their endogenous activating murine FcγRs (FcγRIIA^+/γ^-/-) was established to identify compounds that inhibit the activity of FcγRIIA. Immune complex (IC)-induced reactive oxygen species (ROS) generation served as our read-out of FcγRIIA activity. An appropriate positive (PP2, an inhibitor of the FcγR proximal Src-family kinase) and negative (DMSO, vehicle) control was included in the assay. The screen of 8,483 compounds, used at 10 μM in DMSO, yielded 84 hits (1% hit rate) that were defined as those that have an inhibitory potential that is ≧95% of PP2 (FIG. 1A). Of the 30 compounds cherry picked for a secondary screen, ten compounds were identified as having an ability to inhibit neutrophil FcyRIIA induced ROS generation at even lower concentrations (i.e., 1.1 μM or less) (Table 1).

[2] = mice, gavage; cited from earlier work
neutrophils = assay: Cell viability by Annexin V and propium iodide; assay type: cell-based; details: range of concentrations
[3] = test system: FcγRIIA+/γ-/-/Mac-1-/- mice; assay: Human lupus serum induced kidney injury model; assay type: in vivo, mouse
Protocol: Human serum samples were obtained from the Lupus Clinic at the Beth Israel Deaconess Medical Center from patients with SLE diagnosed according to the classification criteria of the American College of Rheumatology as previously described^13. Informed consent was obtained from all patients and healthy donors under a Beth Israel Deaconess Medical Center Institutional Review Board-approved protocol. FcγRIIA+/γ^-/-/Mac1-mice were injected s.c. in both flanks with 2.5 μg human IgG (Jackson ImmunoResearch Laboratories) in CFA (Thermo Scientific and Difco) on day-3. On days 0 and 2, 200 μl sterile serum was injected i.v. The mice were given an oral administration of Bosutinib (150 mg/kg) or a vehicle solution every 24 hrs from day 0 to 14. Spot urine samples and peripheral blood were collected at indicated time points after human serum injection. Both kidneys from euthanized mice were harvested for histological analysis at day 10 or 14. […]

FcγRIIA [4] = assay: FcγRIIA cross-linking induced ROS generation in FcγRIIA+/γ-/- mouse BMNs (luminol); assay type: cell-based; details: 100 nM, FIG. 4A
Protocol: 10^6 BMNs were suspended in PBS without Ca^2+/Mg^2+, and then incubated with 10 μg/ml mouse anti-hFcγRIIa (clone IV.3; StemCell Technologies) on ice for 30 minutes. After washing in PBS, cells were incubated with or without 500 ng/ml mGM-CSF (BioLegend) for 30 minutes. After pretreated with Bosutinib at indicated concentrations or DMSO at 37 C for 30 minutes, luminol (50 μM) in PBS with Ca^2+/Mg^2+ was added, followed immediately by the addition of goat anti-mouse F(ab′)2 (36 μg/ml; Jackson ImmunoResearch). ROS generation (expressed in relative light units) was continuously monitored over time using a 6-channel bioluminat LB-953 luminometer (Berthold). For human PMNs, 5×10^5 cells were analyzed without GM-CSF pretreatment.

Cc1n[nH]c2ccc(-c3cncc(OC[C@@H](N)Cc4c[nH]c5ccccc45)c3)cc12 [A-443654]
ROS RLU ratio (FcγRIIA [1]): 0.266

COc1cc(Nc2c(C#N)cnc3cc(OCCCN4CCN(C)CC4)c(OC)cc23)c(Cl)cc1Cl [Bosutinib]
Time of peak blood concentration [2]: 2 to 4 h
Cell viability (neutrophils): did not affect cell viability
Total leukocyte and neutrophil counts versus vehicle ([3]; hemocytometric analysis, day 14): comparable
Hb ([3]; peripheral blood, day 14, AVE): 7.98 g/dL
Neu % ([3]; peripheral blood, day 14, AVE): 25.64%
Neu total ([3]; peripheral blood, day 14, AVE): 0.7506 K/ul
Plt total ([3]; peripheral blood, day 14, AVE): 949.8 K/ul
RBC ([3]; peripheral blood, day 14, AVE): 7.98 M/ul
WBC total ([3]; peripheral blood, day 14, AVE): 2.656 K/ul
ROS RLU ratio (FcγRIIA [1]): 0.033
pIC50 (FcγRIIA [1]; mouse BMNs, FIG. 1C): ~7.30

CN(C)CCCn1cc(C2=C(c3c[nH]c4ccccc34)C(=O)NC2=O)c2ccccc21 [GF109203X]
ROS RLU ratio (FcγRIIA [1]): 0.338

Cc1cn(-c2cc(NC(=O)c3ccc(C)c(Nc4nccc(-c5cccnc5)n4)c3)cc(C(F)(F)F)c2)cn1 [Nilotinib]
Neutrophil ROS generation induced by FcγRIIA cross linking (FcγRIIA [4]): reduced
Potency compared to Bosutinib in FcγRIIA cross linking ROS (FcγRIIA [4]): lower

CN(c1ccccc1CNc1nc(Nc2ccc3c(c2)CC(=O)N3)ncc1C(F)(F)F)S(C)(=O)=O [PF431396]
ROS RLU ratio (FcγRIIA [1]): 0.301

Cn1cc(C2=C(c3cn(CCCSC(=N)N)c4ccccc34)C(=O)NC2=O)c2ccccc21 [Ro 31-8220]
ROS RLU ratio (FcγRIIA [1]): 0.778
